Assay results taken from patent US5861498A, “Nucleotides encoding immunophilin FKBP46 and fragments thereof” (Thomas Jefferson University, priority 1996, dated 1999).

Key:
FKBP46 [1] = target: T1, FKBP46 (Spodoptera frugiperda, UniProt Q26486); test: [3H]Dihydro-FK506 binding assay, His-FKBP46 immobilized on Ni2+ affinity resin; set-up: species or system Sf9 insect cell
T1 construct: Nuclear extract containing full-length FKBP46; made in house
T1 sequence (Q26486 1-412): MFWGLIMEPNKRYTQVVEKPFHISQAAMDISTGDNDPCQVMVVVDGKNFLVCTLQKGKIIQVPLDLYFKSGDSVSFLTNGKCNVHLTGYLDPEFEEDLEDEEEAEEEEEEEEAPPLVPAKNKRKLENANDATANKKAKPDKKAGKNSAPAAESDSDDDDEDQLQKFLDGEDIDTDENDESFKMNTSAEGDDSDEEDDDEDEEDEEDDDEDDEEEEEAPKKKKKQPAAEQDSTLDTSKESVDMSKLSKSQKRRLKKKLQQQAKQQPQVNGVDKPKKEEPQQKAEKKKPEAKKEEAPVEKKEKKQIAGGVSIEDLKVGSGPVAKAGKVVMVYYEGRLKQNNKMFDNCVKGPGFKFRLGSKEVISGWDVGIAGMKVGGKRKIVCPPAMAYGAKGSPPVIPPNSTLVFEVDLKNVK
Description: (§1) FIGS. 3A and 3B show FK506 binding and Peptidylprolyl cis-trans isomerase activities of FKBP46. In FIG. 3A, purified His-FKBP46 immobilized on Ni^2+ affinity resin was incubated with [^3 H]dihydro-FK506 in the presence […] or absence of cold FK506. The numbers under each column represent different amounts of nuclear extracts in microliters from Sf9 cells--expressing His-FKBP46 bound to separate Ni^2+ affinity resins. Nuclear extracts from wild type (WT) baculovirus infected Sf9 cells (10 μl) were bound to Ni^2+ affinity resin and used as a control. The amount of radioactivity associated with each resin sample is represented in disintegrations/min. In FIG. 3B, time-dependant release of p-nitroanilide by chymotrypsin from trans N-succinyl-Ala-Leu-Pro-Phe-p-nitroanilide measured by absorbance at 400 nm. Curve A reflects the rate of release of p-nitroanilide in a reaction catalyzed by FKBP46. Curve B is the same as curve A but in the presence of 5 μM FK506. Curve C is the same but without FKBP46. […]
(§2) The radioactivity associated with FKBP46 was measured by scintillation counting. […] Chymotrypsin hydrolyzes the trans form to generate p-nitroanilide, which can be quantitated spectrophotometrically at 400 nm. […] From these curves, the specific activity of FKBP46 was calculated using the first order rate constant (S^-1), and the molar concentration of FKBP46 to be about 7.8×10^6 […]. […]

FKBP46 [2] = target: T1, FKBP46; test: Peptidylprolyl cis-trans isomerase assay, inhibition by FK506; assay type: biochemical, Sf9 insect cell; conditions: 5 μM FK506, 100 nM His-FKBP46, 15° C.; FIG. 3B curve B
Description: as §1, with “nm.” for “nm. Curve A reflects the rate of release of p-nitroanilide in a reaction catalyzed by FKBP46. Curve B is the same as curve A but in the presence of 5 μM FK506. Curve C is the same but without FKBP46.”
Peptidylprolyl cis-trans Isomerase Assay--Peptidylprolyl isomerase activity of FKBP46 was assayed as described previously (Harrison, R. K., and Stein, R. L. (1990) Biochemistry 29, 3813-3816 and Park, S. T., et al. (1992) J. Biol. Chem. 267, 3316-3324) with some modifications. […] The reaction was started by the addition of chymotrypsin (100 μg/ml final) (Sigma), and the release of p-nitroanilide by chymotrypsin was measured by recording the increase in absorbance at 400 nm using a Perkin Elmer λ 3B spectrophotometer connected to a chart recorder. […]

[3] = test system: N-succinyl-Ala-Leu-Pro-Phe-p-nitroanilide; conditions: literature value for comparison (ref 19); cited from earlier work
[4] = target: N-succinyl-Ala-Leu-Pro-Phe-p-nitroanilide
[5] = test system: N-succinyl-Ala-Leu-Pro-Phe-p-nitroanilide; test: Peptidylprolyl cis-trans isomerase assay, specific activity of the immunophilin; assay type: biochemical; conditions: His-FKBP46 100 nM, substrate 75 μM, 15° C.
Description: Peptidylprolyl cis-trans Isomerase Assay--Peptidylprolyl isomerase activity of FKBP46 was assayed as described previously (Harrison, R. K., and Stein, R. L. (1990) Biochemistry 29, 3813-3816 and Park, S. T., et al. (1992) J. Biol. Chem. 267, 3316-3324) with some modifications. His-FKBP46 (100 nM final) was incubated with the peptide substrate N-succinyl-Ala-Leu-Pro-Phe-p-nitroanilide (75 μM final) (Bachem, Switzerland) at 15° C. for 15 min. The reaction was started by the addition of chymotrypsin (100 μg/ml final) (Sigma), and the release of p-nitroanilide by chymotrypsin was measured by recording the increase in absorbance at 400 nm using a Perkin Elmer λ 3B spectrophotometer connected to a chart recorder.
as §2, with “counting. […] Under these conditions, maximal binding was obtained when 10 μl of nuclear extracts containing recombinant His-FKBP46 were immobilized on Ni^2+ affinity resin (FIG. 3A, column 6).” for “counting.”

In the case of C=CC[C@@H]1/C=C(\C)C[C@H](C)C[C@H](OC)[C@H]2O[C@@](O)(C(=O)C(=O)N3CCCC[C@H]3C(=O)O[C@H](/C(C)=C/[C@@H]3CC[C@@H](O)[C@H](OC)C3)[C@H](C)[C@@H](O)CC1=O)[C@H](C)C[C@@H]2OC [FK506], the “[3H]dihydro-FK506 binding to FKBP46 in the presence of excess cold FK506” value (FKBP46 [1]; 5000-fold excess of cold FK506, comparable with mock purified wild type extract, FIG. 3A columns 3, 5, 7) is reported as “minimal” and the inhibition at 5 µM (FKBP46 [2]) is reported as ~50%.

With [3H]CC([3H])C[C@@H]1/C=C(\C)C[C@H](C)C[C@H](OC)[C@H]2O[C@@](O)(C(=O)C(=O)N3CCCC[C@H]3C(=O)O[C@H](/C(C)=C/[C@@H]3CC[C@@H](O)[C@H](OC)C3)[C@H](C)[C@@H](O)CC1=O)[C@H](C)C[C@@H]2OC (stereo partly drawn) [[^3 H]dihydro-FK506] the “[3H]dihydro-FK506 binding to FKBP46 (radioactivity associated with resin)” value (FKBP46 [1]; 50 nM [3H]dihydro-FK506, on ice 18 h, absence of cold FK506, FIG. 3A) was “can bind specifically to FKBP46 in a dose-dependent manner”.

For “hFKBP12: human FK binding protein FKBP12, comparison immunophilin”, the specific activity [3] is listed as “about 4.3×10^6 s^-1. M^-1”.

recombinant His-FKBP46 showed a peptidylprolyl cis-trans isomerase activity (chymotrypsin-coupled release of p-nitroanilide, absorbance at 400 nm) [4] of 7.8e+06 s⁻¹ M⁻¹.

B1: FKBP46: novel Sf9 insect cell nuclear immunophilin, SEQ ID NO:2; tested as recombinant His-tagged protein (protein)
chain: T1 sequence (Q26486 1-412)
modifications: His tag
notes: tested as recombinant His-tagged protein
With B1 the “specific activity (first order rate constant / molar concentration)” value [5] was “about 7.8×10^6 s^-1. M^-1”.
